Measured values reported in patent US9499550B2 (BRISTOL-MYERS SQUIBB COMPANY, priority 2012, dated 2016).

Key:
[1] = system: HCV genotype 1a (H77 strain) replicon in HUH-7 cells; test: HCV replicon luciferase reporter assay, genotype 1a; format: cell-based; details: Hepatitis C virus, Huh-7, 72 h, HCV genotype 1a replicon luciferase assay, 3 days incubation, range class, read-out: LE_1a (EC50, range)
How it was run: (§1)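 Replicon inhibition for both genotypes was measured as Renilla luciferase signal (EnduRen, 7.5 μM final, 2 h) after 3-day, 37° C exposure of replicon-bearing HUH-7 cells in 4% FCS DMEM, 0.5% DMSO. The 1b construct carries S1179I; the 1a H77 construct carries P1496L and S2204I. Twenty-point, 3-fold dilutions were fitted four-parametrically for EC50, and CC50 was taken from multiplexed Cell Titer-Blue.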

[2] = system: HCV genotype 1b (Con1) replicon in HUH-7 cells; test: HCV replicon luciferase reporter assay, genotype 1b; format: cell-based; details: Hepatitis C virus, Huh-7, 72 h, HCV genotype 1b replicon luciferase assay, 3 days incubation, range class, read-out: LE_1b (EC50, range)
How it was run: as §1

SMILES	EC50 [1] [nM]	EC50 [2] [nM]
[2H]C([2H])([2H])C(OC(=O)N[C@@H]1C(=O)N2C[C@H](Oc3nc(N(C)C)cc4cc(OC)ccc34)C[C@H]2C(=O)N[C@]2(C(=O)NS(=O)(=O)C3(C)CC3)C[C@H]2/C=C\CC[C@@H](C)C[C@H]1C)(C([2H])([2H])[2H])C(F)(F)F [Compound 3115, 1,1,1,3,3,3-hexadeutero-2-(trifluoromethyl)propan-2-yl((2R,6S,7R,9R,13aS,14aR,16aS,Z)-2-((3-(dimethylamino)-6-methoxyisoquinolin-1-yl)oxy)-7,9-dimethyl-14a-(((1-methylcyclopropyl)sulfonyl)carbamoyl)-5,16-dioxo-1,2,3,5,6,7,8,9,10,11,13a,14,14a,15,16,16a-hexadecahydrocyclopropa[e]pyrrolo[1,2-a][1,4]diazacyclopentadecin-6-yl)carbamate]	4.82 to 103	4.82 to 103
COc1ccc2c(O[C@@H]3C[C@H]4C(=O)N[C@]5(C(=O)NS(=O)(=O)C6(C)CC6)C[C@H]5/C=C\CC[C@H](C)C[C@@H](C)[C@H](NC(=O)OC(C)(C)C(F)(F)F)C(=O)N4C3)nc(N3CCCC3)cc2c1 [Compound 3118, 1,1,1-trifluoro-2-methylpropan-2-yl((2R,6S,7R,9S,13aS,14aR,16aS,Z)-2-((6-methoxy-3-(pyrrolidin-1-yl)isoquinolin-1-yl)oxy)-7,9-dimethyl-14a-(((1-methylcyclopropyl)sulfonyl)carbamoyl)-5,16-dioxo-1,2,3,5,6,7,8,9,10,11,13a,14,14a,15,16,16a-hexadecahydrocyclopropa[e]pyrrolo[1,2-a][1,4]diazacyclopentadecin-6-yl)carbamate]	4.82 to 103	4.82 to 103
COc1ccc2c(O[C@@H]3C[C@H]4C(=O)N[C@]5(C(=O)NS(=O)(=O)C6(C)CC6)C[C@H]5/C=C\CC[C@@H](C)C[C@@H](C)[C@H](NC(=O)OC(C)(C)C(F)(F)F)C(=O)N4C3)nc(N3CCCC3)cc2c1 [Compound 3119, 1,1,1-trifluoro-2-methylpropan-2-yl((2R,6S,7R,9R,13aS,14aR,16aS,Z)-2-((6-methoxy-3-(pyrrolidin-1-yl)isoquinolin-1-yl)oxy)-7,9-dimethyl-14a-(((1-methylcyclopropyl)sulfonyl)carbamoyl)-5,16-dioxo-1,2,3,5,6,7,8,9,10,11,13a,14,14a,15,16,16a-hexadecahydrocyclopropa[e]pyrrolo[1,2-a][1,4]diazacyclopentadecin-6-yl)carbamate]	< 5.46	< 5.46
COc1ccc2c(O[C@@H]3C[C@H]4C(=O)N[C@]5(C(=O)NS(=O)(=O)C6CC6)C[C@H]5/C=C\CC[C@H](C)C[C@@H](C)[C@H](NC(=O)OC(C)(C)C)C(=O)N4C3)nc(N(C)C)cc2c1 [Compound 3120, tert-butyl ((2R,6S,7R,9S,13aS,14aR,16aS,Z)-14a-((cyclopropylsulfonyl)carbamoyl)-2-((3-(dimethylamino)-6-methoxyisoquinolin-1-yl)oxy)-7,9-dimethyl-5,16-dioxo-1,2,3,5,6,7,8,9,10,11,13a,14,14a,15,16,16a-hexadecahydrocyclopropa[e]pyrrolo[1,2-a][1,4]diazacyclopentadecin-6-yl)carbamate]	4.82 to 103	4.82 to 103
COc1ccc2c(O[C@@H]3C[C@H]4C(=O)N[C@]5(C(=O)NS(=O)(=O)C6CC6)C[C@H]5/C=C\CC[C@@H](C)C[C@@H](C)[C@H](NC(=O)OC(C)(C)C)C(=O)N4C3)nc(N(C)C)cc2c1 [Compound 3121, tert-butyl ((2R,6S,7R,9R,13aS,14aR,16aS,Z)-14a-((cyclopropylsulfonyl)carbamoyl)-2-((3-(dimethylamino)-6-methoxyisoquinolin-1-yl)oxy)-7,9-dimethyl-5,16-dioxo-1,2,3,5,6,7,8,9,10,11,13a,14,14a,15,16,16a-hexadecahydrocyclopropa[e]pyrrolo[1,2-a][1,4]diazacyclopentadecin-6-yl)carbamate]	4.82 to 103	< 5.46
COc1ccc2c(O[C@@H]3C[C@H]4C(=O)N[C@]5(C(=O)NS(=O)(=O)C6(CF)CC6)C[C@H]5/C=C\CC[C@H](C)C[C@@H](C)[C@H](NC(=O)OC(C)(C)C)C(=O)N4C3)nc(N(C)C)cc2c1 [Compound 3122, tert-butyl ((2R,6S,7R,9S,13aS,14aR,16aS,Z)-2-((3-(dimethylamino)-6-methoxyisoquinolin-1-yl)oxy)-14a-(((1-(fluoromethyl)cyclopropyl)sulfonyl)carbamoyl)-7,9-dimethyl-5,16-dioxo-1,2,3,5,6,7,8,9,10,11,13a,14,14a,15,16,16a-hexadecahydrocyclopropa[e]pyrrolo[1,2-a][1,4]diazacyclopentadecin-6-yl)carbamate]	4.82 to 103	4.82 to 103
COc1ccc2c(O[C@@H]3C[C@H]4C(=O)N[C@]5(C(=O)NS(=O)(=O)C6(CF)CC6)C[C@H]5/C=C\CC[C@@H](C)C[C@@H](C)[C@H](NC(=O)OC(C)(C)C)C(=O)N4C3)nc(N(C)C)cc2c1 [Compound 3123, tert-butyl ((2R,6S,7R,9R,13aS,14aR,16aS,Z)-2-((3-(dimethylamino)-6-methoxyisoquinolin-1-yl)oxy)-14a-(((1-(fluoromethyl)cyclopropyl)sulfonyl)carbamoyl)-7,9-dimethyl-5,16-dioxo-1,2,3,5,6,7,8,9,10,11,13a,14,14a,15,16,16a-hexadecahydrocyclopropa[e]pyrrolo[1,2-a][1,4]diazacyclopentadecin-6-yl)carbamate]	4.82 to 103	4.82 to 103
COc1ccc2c(O[C@@H]3C[C@H]4C(=O)N[C@]5(C(=O)NS(=O)(=O)C6(CF)CC6)C[C@H]5/C=C\CC[C@H](C)C[C@@H](C)[C@H](NC(=O)OC(C)(C)C(C)(F)F)C(=O)N4C3)nc(N(C)C)cc2c1 [Compound 3124, 3,3-difluoro-2-methylbutan-2-yl((2R,6S,7R,9S,13aS,14aR,16aS,Z)-2-((3-(dimethylamino)-6-methoxyisoquinolin-1-yl)oxy)-14a-(((1-(fluoromethyl)cyclopropyl)sulfonyl)carbamoyl)-7,9-dimethyl-5,16-dioxo-1,2,3,5,6,7,8,9,10,11,13a,14,14a,15,16,16a-hexadecahydrocyclopropa[e]pyrrolo[1,2-a][1,4]diazacyclopentadecin-6-yl)carbamate]	4.82 to 103	4.82 to 103
COc1ccc2c(O[C@@H]3C[C@H]4C(=O)N[C@]5(C(=O)NS(=O)(=O)C6(CF)CC6)C[C@H]5/C=C\CC[C@@H](C)C[C@@H](C)[C@H](NC(=O)OC(C)(C)C(F)(F)F)C(=O)N4C3)nc(N(C)C)cc2c1 [Compound 3127, 1,1,1-trifluoro-2-methylpropan-2-yl((2R,6S,7R,9R,13aS,14aR,16aS,Z)-2-((3-(dimethylamino)-6-methoxyisoquinolin-1-yl)oxy)-14a-(((1-(fluoromethyl)cyclopropyl)sulfonyl)carbamoyl)-7,9-dimethyl-5,16-dioxo-1,2,3,5,6,7,8,9,10,11,13a,14,14a,15,16,16a-hexadecahydrocyclopropa[e]pyrrolo[1,2-a][1,4]diazacyclopentadecin-6-yl)carbamate]	4.82 to 103	< 5.46
COc1ccc2c(O[C@@H]3C[C@H]4C(=O)N[C@]5(C(=O)NS(=O)(=O)C6(CF)CC6)C[C@H]5/C=C\CC[C@@H](C)C[C@@H](C)[C@H](NC(=O)O[C@H](C)C(F)(F)F)C(=O)N4C3)nc(N(C)C)cc2c1 [Compound 3128, (R)-1,1,1-trifluoropropan-2-yl((2R,6S,7R,9R,13aS,14aR,16aS,Z)-2-((3-(dimethylamino)-6-methoxyisoquinolin-1-yl)oxy)-14a-(((1-(fluoromethyl)cyclopropyl)sulfonyl)carbamoyl)-7,9-dimethyl-5,16-dioxo-1,2,3,5,6,7,8,9,10,11,13a,14,14a,15,16,16a-hexadecahydrocyclopropa[e]pyrrolo[1,2-a][1,4]diazacyclopentadecin-6-yl)carbamate]	4.82 to 103	< 5.46
COc1ccc2c(O[C@@H]3C[C@H]4C(=O)N[C@]5(C(=O)NS(=O)(=O)C6CC6)C[C@H]5/C=C\CC[C@@H](C)C[C@@H](C)[C@H](NC(=O)OC(C)(C)C(F)(F)F)C(=O)N4C3)nc(N(C)C)cc2c1 [Compound 3130, 1,1,1-trifluoro-2-methylpropan-2-yl((2R,6S,7R,9R,13aS,14aR,16aS,Z)-14a-((cyclopropylsulfonyl)carbamoyl)-2-((3-(dimethylamino)-6-methoxyisoquinolin-1-yl)oxy)-7,9-dimethyl-5,16-dioxo-1,2,3,5,6,7,8,9,10,11,13a,14,14a,15,16,16a-hexadecahydrocyclopropa[e]pyrrolo[1,2-a][1,4]diazacyclopentadecin-6-yl)carbamate]	< 5.46	< 5.46
COc1ccc2c(O[C@@H]3C[C@H]4C(=O)N[C@]5(C(=O)NS(=O)(=O)C6CC6)C[C@H]5/C=C\CC[C@@H](C)C[C@@H](C)[C@H](NC(=O)OC(C)(C)C(C)(F)F)C(=O)N4C3)nc(N(C)C)cc2c1 [Compound 3132, 3,3-difluoro-2-methylbutan-2-yl((2R,6S,7R,9R,13aS,14aR,16aS,Z)-14a-((cyclopropylsulfonyl)carbamoyl)-2-((3-(dimethylamino)-6-methoxyisoquinolin-1-yl)oxy)-7,9-dimethyl-5,16-dioxo-1,2,3,5,6,7,8,9,10,11,13a,14,14a,15,16,16a-hexadecahydrocyclopropa[e]pyrrolo[1,2-a][1,4]diazacyclopentadecin-6-yl)carbamate]	< 5.46	< 5.46
